The results in this text go back to US9617226B2 (AbbVie Deutschland GmbH & Co. KG, priority 2014, dated 2017).

As usually defined, the Ki is the equilibrium dissociation constant of an inhibitor or competing ligand from its target. Read a low Ki as higher affinity.

Test [1] concerns the target human vasopressin V1a receptor (Homo sapiens (Human), UniProt P37288). The experiment in a line: Vasopressin V1a receptor binding assay. To be noted: selectivity quotient, human V1a vs human V1b. As for the experimental part:
The test substances were dissolved in a concentration of 5 mM M in DMSO. Further dilution of these DMSO solutions took place as described for V1b.
The membrane pellet was again homogenized in a High-Pressure-Homogenizer, Polytec 50K at 1500 PSI (Heinemann, Germany) and subsequently taken up in 50 mM Tris-HCl, pH 7.4, homogenized and stored in aliquots frozen in liquid nitrogen at −190° C.
The incubation buffer was: 50 mM Tris, 10 mM MgCl2, 0.1% BSA, pH 7.4.
Duplicate determinations were carried out.
After incubation (60 minutes at room temperature), the samples were processed as described for V1b.
The binding parameters were calculated by nonlinear regression in SAS.

Test [2] deals with human vasopressin V1b receptor (Homo sapiens (Human), UniProt P47901). The experiment in a line: biochemical.
Sequence of human vasopressin V1b receptor (P47901 whole entry): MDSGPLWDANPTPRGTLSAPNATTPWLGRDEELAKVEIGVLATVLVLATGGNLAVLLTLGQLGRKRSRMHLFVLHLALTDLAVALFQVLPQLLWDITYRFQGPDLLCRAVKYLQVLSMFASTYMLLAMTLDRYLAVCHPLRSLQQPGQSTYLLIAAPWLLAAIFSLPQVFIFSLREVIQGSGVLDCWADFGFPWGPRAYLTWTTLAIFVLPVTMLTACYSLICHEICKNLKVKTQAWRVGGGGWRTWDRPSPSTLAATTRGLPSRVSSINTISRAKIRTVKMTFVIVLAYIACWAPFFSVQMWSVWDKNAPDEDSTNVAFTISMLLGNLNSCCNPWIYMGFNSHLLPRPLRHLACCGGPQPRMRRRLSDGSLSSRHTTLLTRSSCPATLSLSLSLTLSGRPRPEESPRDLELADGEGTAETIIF

Sequence of human vasopressin V1a receptor (P37288 whole entry): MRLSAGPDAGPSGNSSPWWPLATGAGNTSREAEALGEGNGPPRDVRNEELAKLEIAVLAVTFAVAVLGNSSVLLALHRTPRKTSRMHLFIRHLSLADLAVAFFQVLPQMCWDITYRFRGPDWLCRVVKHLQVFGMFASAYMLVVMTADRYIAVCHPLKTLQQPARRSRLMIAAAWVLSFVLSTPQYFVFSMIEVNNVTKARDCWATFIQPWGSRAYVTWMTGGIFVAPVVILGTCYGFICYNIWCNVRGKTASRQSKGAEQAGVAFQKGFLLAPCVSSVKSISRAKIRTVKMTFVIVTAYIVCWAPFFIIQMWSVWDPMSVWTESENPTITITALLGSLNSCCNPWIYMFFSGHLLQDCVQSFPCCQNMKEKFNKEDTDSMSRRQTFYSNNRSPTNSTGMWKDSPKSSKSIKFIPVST

As to `CC(C)NC(=O)Cn1c(-c2cccc(Cl)c2)nc2ccc([C@H]3C[C@@H](CN4CC[C@H](C)C4)C3)cc2c1=O` [Example 24, cis-2-[2-(3-Chlorophenyl)-6-[3-[[(3S)-3-methylpyrrolidin-1-yl]methyl]cyclobutyl]-4-oxo-quinazolin-3-yl]-N-isopropyl-acetamide], the “Ki(h-V1a)/Ki(h-V1b)” value in test [1] is listed as “+++ (>75)”. The same molecule displayed a Ki in test [2] of 10 to 100 nM.

As to `CC(C)NC(=O)Cn1c(-c2cccc(Cl)c2)nc2ccc([C@H]3C[C@@H](CN4CCC(C(F)(F)F)CC4)C3)cc2c1=O` [Example 38, cis-2-[2-(3-Chlorophenyl)-4-oxo-6-[3-[[4-(trifluoromethyl)-1-piperidyl]methyl]cyclobutyl]quinazolin-3-yl]-N-isopropyl-acetamide], the “Ki(h-V1a)/Ki(h-V1b)” value in test [1] was “+++ (>75)”. In test [2], this molecule returned a Ki of 1 to 10 nM.

In the case of `CC(C)(C)NC(=O)Cn1c(-c2cccc(Cl)c2)nc2ccc([C@H]3C[C@@H](CN4CCCCC4)C3)cc2c1=O` [Example 26, cis-N-tert-Butyl-2-[2-(3-chlorophenyl)-4-oxo-6-[3-(1-piperidylmethyl)cyclobutyl]-quinazolin-3-yl]acetamide], in test [1], the “Ki(h-V1a)/Ki(h-V1b)” value is “+++ (>75)”. The Ki in test [2] was under 1 nM.

With `CC(C)NC(=O)Cn1c(-c2cccc(Cl)c2)nc2ccc([C@H]3C[C@@H](CN4CCCOCC4)C3)cc2c1=O` [Example 25, cis-2-[2-(3-Chlorophenyl)-6-[3-(1,4-oxazepan-4-ylmethyl)cyclobutyl]-4-oxo-quinazolin-3-yl]-N-isopropyl-acetamide], in test [1], the “Ki(h-V1a)/Ki(h-V1b)” value was “+++ (>75)”. In test [2], this molecule yielded an inhibition constant Ki of 1 to 10 nM.

Turning to `CC(C)NC(=O)Cn1c(-c2cccc(Cl)c2)nc2ccc([C@H]3C[C@@H](CN4CCC(C)(O)CC4)C3)cc2c1=O` [Example 36, cis-2-[2-(3-Chlorophenyl)-6-[3-[(4-hydroxy-4-methyl-1-piperidyl)methyl]cyclobutyl]-4-oxo-quinazolin-3-yl]-N-isopropyl-acetamide], the “Ki(h-V1a)/Ki(h-V1b)” value in test [1] is listed as “+++ (>75)”. The same molecule displayed a Ki in test [2] of 1 to 10 nM.

`C[C@@H](NC(=O)Cn1c(-c2cccc(Cl)c2)nc2ccc([C@H]3C[C@@H](CN4CCCCC4)C3)cc2c1=O)C(F)(F)F` [Example 46]: the “Ki(h-V1a)/Ki(h-V1b)” value in test [1] is on record as “++ (25-75)”. This molecule also gave a Ki in test [2] of 10 to 100 nM.

With `O=C(Cn1c(-c2cccc(Cl)c2)nc2ccc([C@H]3C[C@@H](CN4CCCCC4)C3)cc2c1=O)NCC1CC1` [Example 29, cis-2-[2-(3-Chlorophenyl)-4-oxo-6-[3-(1-piperidylmethyl)cyclobutyl]quinazolin-3-yl]-N-(cyclopropylmethyl)acetamide], the “Ki(h-V1a)/Ki(h-V1b)” value in test [1] is “+++ (>75)”. In test [2], this molecule came in with an inhibition constant Ki of 10 to 100 nM.

As for `CC(C)NC(=O)Cn1c(-c2cccc(Cl)c2)nc2ccc([C@H]3C[C@@H](CN4CC[C@@H](C)C4)C3)cc2c1=O` [Example 34, cis-2-[2-(3-Chlorophenyl)-6-[3-[[(3R)-3-methylpyrrolidin-1-yl]methyl]cyclobutyl]-4-oxo-quinazolin-3-yl]-N-isopropyl-acetamide], the “Ki(h-V1a)/Ki(h-V1b)” value in test [1] is given as “+++ (>75)”. In test [2], the Ki lay within 1 to 10 nM.

Regarding `CC(C)NC(=O)Cn1c(-c2cccc(Cl)c2)nc2ccc([C@H]3C[C@@H](CN4CC(F)C4)C3)cc2c1=O` [Example 19, cis-2-[2-(3-Chlorophenyl)-6-[3-[(3-fluoroazetidin-1-yl)methyl]cyclobutyl]-4-oxo-quinazolin-3-yl]-N-isopropyl-acetamide], the “Ki(h-V1a)/Ki(h-V1b)” value in test [1] was “+++ (>75)”. The inhibition constant Ki in test [2] was in the range of 1 to 10 nM.

The molecule `CC(C)NC(=O)Cn1c(-c2cccc(Cl)c2)nc2ccc([C@H]3C[C@@H](CN4CC(O)C4)C3)cc2c1=O` [Example 40, cis-2-[2-(3-Chlorophenyl)-6-[3-[(3-hydroxyazetidin-1-yl)methyl]cyclobutyl]-4-oxo-quinazolin-3-yl]-N-isopropyl-acetamide] came in with an inhibitory constant (Ki) in test [2] of 1 to 10 nM.
